The text below walks through data of patent US10080756B2, “Combination methods for treating cancers” (Gilead Sciences, Inc., priority 2014, dated 2018).

Like-named read-outs stand apart in the source and are kept apart here.

One data set deals with SU-DHL-6. Briefly: Cell Titer Glo viability assay, SU-DHL-6. The class given is cell-based. The conditions noted are these: Homo sapiens; SU-DHL-6, DLBCL; single agent; 72 hours; read-out: Inhibition of Viability, EC50. As to the method: (§1) All procedures were performed at Gilead Sciences, Inc. in Branford, The compound of formula (I), cyclophosphamide, doxorubicin and vincristine sulfate were dissolved in DMSO to prepare stock solutions that were serially diluted three-fold in DMSO in a 96 well plate format at 1000× so the final starting assay concentrations tested would be 10 μM, 200 μM, 10 μM, and 1 μM respectively, for each compound. Compound plates were diluted 1:100 in RPMI without serum or additives creating a 10× stock. Cells were seeded into a 96-well plate at 10,000-20,000 cells per well in 100 μl of growth media appropriate to the cell line supplemented with 100 U/L penicillin-streptomycin. OCI-Ly3, OCI-Ly4 and OCI-Ly7 were grown in Iscove's+20% FBS, OCI-Ly19 was grown in alphaMEM+20% FBS, and all other cell lines were grown in RPMI+10% FBS. To each well, 11 μl of 10× compound was added in a final concentration of 0.1% DMSO and cells were incubated at 37° C. in 5% CO2 for 72 hours. Cell viability was assessed with Cell Titer Glo (Promega, Madison, Wis.) following the manufacturer's protocol on an Envision plate reader (Perkin Elmer, Waltham, Mass.). EC50 values were determined using a four parameter variable slope model with GraphPad Prism 6.0 software. All EC50 values represent mean values of from duplicate dose response curves.
A general note: Cellular ATP, detected with luciferase, serves as a proxy for viable cell number.

In data set [1] the test system is 10 diffuse large B-cell lymphoma (DLBCL), 4 multiple myeloma (MM), 2 follicular lymphoma (FL), and 1 mantle cell lymphoma (MCL) cell lines. As to the kind of experiment: Cell Titer Glo viability assay, summary over all cell lines tested. The class given is cell-based. The conditions noted are these: at concentrations <3000 nM. As for the experimental part:
as §1

The next data set deals with SU-DHL-10. Briefly: Cell Titer Glo viability assay, SU-DHL-10. The conditions noted are these: Homo sapiens, SU-DHL10; SU-DHL-10, DLBCL; single agent; 72 hours; read-out: Inhibition of Viability, EC50. The class given is cell-based. As to the method:
as §1

Another data set has as its system Mino. Briefly: Cell Titer Glo viability assay, Mino. The class given is cell-based. The conditions noted are these: Homo sapiens; Mino, MCL; single agent; 72 hours; read-out: Inhibition of Viability, EC50. As to the method: as §1
The test system of another data set is SU-DHL-2. As to the kind of experiment: Cell Titer Glo viability assay, SU-DHL-2. The class given is cell-based. The conditions noted are these: Homo sapiens; SU-DHL-2, DLBCL; single agent; 72 hours; read-out: Inhibition of Viability, EC50. As to the method: as §1
Data set [2] can be described thus: Plasma levels in SU-DHL-10 xenograft study. The class given is in vivo, mouse. As for the experimental part:
On the 16th day post-tumor implantation, animals with established tumors (n=9 animals per group) were treated for 3 days by oral gavage with either vehicle or Entospletinib at 75 mg/kg or 25 mg/kg twice daily (BID). […] This dose level is designated 75/50 mg/kg.
Efficacy was evaluated by tumor volume measurements. Plasma levels of Entospletinib and vincristine were evaluated on the third day of dosing Entospletinib (Day 19) and the last day of dosing (Day 32). Tolerability was evaluated by daily observations, body weight (3 times per week) and circulating blood cell counts at the end of the study.

In another data set the test system is KMS-11. As to the kind of experiment: Cell Titer Glo viability assay, KMS-11. It counts as cell-based. The conditions noted are these: Homo sapiens; KMS-11, MM; single agent; 72 hours; read-out: Inhibition of Viability, EC50. As to the method: as §1
Another data set deals with OCI-LY4. As to the kind of experiment: Cell Titer Glo viability assay, OCI-LY4. The class given is cell-based. The conditions noted are these: OCI-LY4, DLBCL; single agent; 72 hours; read-out: Inhibition of Viability, EC50. As to the method: as §1
The next data set relates to Karpas 422. Briefly: Cell Titer Glo viability assay, Karpas 422. The class given is cell-based. The conditions noted are these: Homo sapiens; Karpas 422, DLBCL; single agent; 72 hours; read-out: Inhibition of Viability, EC50. As to the method:
as §1

For another data set, the system named is Pfeiffer. As to the kind of experiment: Cell Titer Glo viability assay, Pfeiffer. The conditions noted are these: Homo sapiens, DLBCL, single agent, 72 hours, read-out: Inhibition of Viability, EC50. The class given is cell-based. As for the experimental part:
as §1

For another data set, the system named is OCI-LY3. As to the kind of experiment: Cell Titer Glo viability assay, OCI-LY3. The conditions noted are these: Homo sapiens; OCI-LY3, DLBCL; single agent; 72 hours; read-out: Inhibition of Viability, EC50. It counts as cell-based. As for the experimental part: as §1
A further data set has as its system DHL-10. As to the kind of experiment: Cell Titer Glo viability assay, DHL-10, alone or with compound of Formula I (Example 3). As for the experimental part:
All procedures were performed at Gilead Sciences, Inc. in Branford, Conn. […] Compound plates were diluted 1:100 in RPMI without serum or additives but containing either 1% DMSO or 3 μM of the compound of Formula I creating a 10× stock. The DLBCL cell line, DHL-10 was plated at 10,000 cells per well in RPMI supplemented with 10% FBS and 100 U/L penicillin-streptomycin. To each well containing cells, 11 μl of 10× compound mixture in serum-free media was added in a final concentration of 0.2% DMSO and cells were incubated at 37° C. in 5% CO2 for 72 hours. Cell viability was assessed using Cell Titer Glo (CTG, Promega, Madison, Wis.) following the manufacturer's protocol on an Envision plate reader (Perkin Elmer, Waltham, Mass.). CTG signals were recorded for individual compound treatments and combinations. EC50 values were determined using a four parameter variable slope model with GraphPad Prism 6.0 software.

A short description of data set [3]: Cell Titer Glo viability assay, summary over all cell lines tested. It counts as cell-based. Particulars: B-cell; range over the 17 cell lines of Table 1; read-out: EC50 values to inhibit cell viability, range over cell lines. As for the experimental part: as §1
The conditions of data set [4]: cited from earlier work.

In the case of `c1cn2cc(-c3ccc4cn[nH]c4c3)nc(Nc3ccc(N4CCOCC4)cc3)c2n1` [Compound of Formula I, 6-(1H-indazol-6-yl)-N-(4-morpholinophenyl)imidazo[1,2-a]pyrazin-8-amine], the EC50 with SU-DHL-6, in the data set with SU-DHL-10, with Mino, in the data set with SU-DHL-2, in the data set on KMS-11 and with OCI-LY4 was > 3000 nM in each case. Moreover, the EC50 in the data set with Karpas 422, in the data set on Pfeiffer and in the data set on OCI-LY3 was > 3000 nM in each case. The “inhibition of cell viability in any of the cell lines tested” value in data set [1] is listed as “did not show inhibition cell viability”. Further, in data set [2] (75 mg/kg BID), the “plasma concentrations on the third day of dosing” value was “higher than planned plasma concentrations”. Also, the “plasma concentrations at the end of study at Cmin (trough)” value in [2] (25 and 50 mg/kg BID, respectively, compared with mouse whole blood values for inhibition of SYK) was “exceed the in vitro pervanadate-stimulated mouse whole blood EC50 and EC50 values for inhibition of SYK”.

`CC[C@]1(O)C[C@H]2CN(CCc3c([nH]c4ccccc34)[C@@](C(=O)OC)(c3cc4c(cc3OC)N(C=O)[C@H]3[C@@](O)(C(=O)OC)[C@H](OC(C)=O)[C@]5(CC)C=CCN6CC[C@]43[C@@H]65)C2)C1` [Vincristine, vincristine]: the EC50 in the data set on SU-DHL-6 is 12 nM; in the data set on DHL-10 (Homo sapiens, 72 h, read-out: Inhibition of cell viability EC50, No Compound of Formula I) it was 14.1 nM; in the data set with DHL-10 (read-out: Inhibition of cell viability EC50, +300 nM Compound of Formula I, DHL-10, in combination with 300 nM compound of Formula I, 72 hours), 3.5 nM; in data set [3], ≤ 103 nM; with SU-DHL-10 it was 45 nM; in the data set on Mino it was 42 nM. The EC50 was 65 nM with SU-DHL-2; 103 nM with KMS-11; < 1 nM in the data set on OCI-LY4; 62 nM with Karpas 422; 4 nM in the data set with Pfeiffer; 12 nM with OCI-LY3. Further, the solubility result is “only slightly soluble” in [4] (95% ethanol), “soluble” in [4] (methanol) and “freely soluble” in data set [4] (water).

Broadly, the EC50 is the concentration needed to bring the measured effect to its halfway point.
